Assay results reported in ChEMBL document CHEMBL1132692, “Paclitaxel derivatives for targeted therapy of cancer: toward the development of smart taxanes” (J Med Chem, 1999).

What was measured:
[1] = biological target: Gastrin-releasing peptide receptor (Mus musculus) (UniProt P21729); assay: Inhibition of [125I]Tyr3-BBN binding to BNR-11 cell line (Bombesin/gastrin-releasing peptide receptor); type: cell-based; settings: concentration not given here
[2] = biological target: T1, Bombesin receptor subtype-3 (Homo sapiens) (UniProt P32247); assay: Inhibition of [125I]Tyr3-BBN binding to NCI-H1299 cell line; type: cell-based; settings: concentration not given here
T1 sequence (whole entry): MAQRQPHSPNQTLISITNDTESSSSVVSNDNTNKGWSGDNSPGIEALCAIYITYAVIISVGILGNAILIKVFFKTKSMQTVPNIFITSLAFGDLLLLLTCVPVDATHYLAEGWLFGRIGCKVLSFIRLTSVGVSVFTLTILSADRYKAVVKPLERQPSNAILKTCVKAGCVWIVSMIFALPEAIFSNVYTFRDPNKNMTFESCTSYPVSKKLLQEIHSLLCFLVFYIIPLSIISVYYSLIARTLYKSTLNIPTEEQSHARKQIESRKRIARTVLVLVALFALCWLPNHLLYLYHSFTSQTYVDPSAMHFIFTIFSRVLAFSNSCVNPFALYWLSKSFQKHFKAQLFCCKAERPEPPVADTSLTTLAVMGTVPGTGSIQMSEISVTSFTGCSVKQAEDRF

NCI-H1299 [3] = assay: Inhibitory concentration against NCI-H1299 Human Nonsmall cell lung cancer cells after 96h exposure to the compound.; type: functional, cell-based; settings: NCI-H1299, 96 h
NCI-H1299 [4] = assay: Inhibitory concentration against NCI-H1299 Human Nonsmall cell lung cancer cells after 24 hr exposure to the compound.; type: functional, cell-based; settings: NCI-H1299, 24 h

Gastrin-releasing peptide receptor (Mus musculus), sequence (P21729 whole entry): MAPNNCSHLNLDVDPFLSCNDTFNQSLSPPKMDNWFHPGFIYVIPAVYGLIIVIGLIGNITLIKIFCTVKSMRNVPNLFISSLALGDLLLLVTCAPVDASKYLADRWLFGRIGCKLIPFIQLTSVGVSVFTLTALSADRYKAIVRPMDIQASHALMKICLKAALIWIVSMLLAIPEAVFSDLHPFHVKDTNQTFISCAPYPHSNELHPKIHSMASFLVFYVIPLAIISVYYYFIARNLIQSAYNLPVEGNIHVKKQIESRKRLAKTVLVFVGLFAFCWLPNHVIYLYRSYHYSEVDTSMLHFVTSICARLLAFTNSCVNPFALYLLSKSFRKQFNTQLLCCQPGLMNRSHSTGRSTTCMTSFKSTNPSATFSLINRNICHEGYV

Q: With `CC(C)C[C@H](NC(=O)[C@H](Cc1c[nH]cn1)NC(=O)CNC(=O)[C@@H](NC(=O)[C@H](C)NC(=O)[C@H](Cc1c[nH]c2ccccc12)NC(=O)[C@@H](N)CCC(N)=O)C(C)C)C(N)=O` as the compound, how does the inhibition [1] read?
A: Its inhibition is 14%.

Q: And the inhibition [2]?
A: The inhibition was 3.6%.

Q: Which IC50 (NCI-H1299 [3]) does the source give for `CC(=O)O[C@H]1C(=O)[C@@]2(C)[C@H]([C@H](OC(=O)c3ccccc3)[C@]3(O)C[C@H](OC(=O)[C@H](O)[C@@H](NC(=O)c4ccccc4)c4ccccc4)C(C)=C1C3(C)C)[C@]1(OC(C)=O)CO[C@@H]1C[C@@H]2O` [PACLITAXEL] here?
A: The IC50 was 0.015 µM.

Q: And the IC50 (NCI-H1299 [4])?
A: Its IC50 is 0.035 µM.
